The source of these data is patent publication US20070117840A1, “Receptor antagonist” (priority 2004, published 2007).

The target in assay [1] is T1, human-type OT7T022 (Homo sapiens, UniProt Q9GZQ6).
T1 construct: expressed in transfected cells; host or cells: CHO cells (membrane fraction)
Put plainly: Binding inhibiting activity using human-type OT7T022-expressing CHO cell (125I-Y-RFRP-3). The note with it: human-type OT7T022-expressing CHO cell membrane fraction, 125I-labeled Y-RFRP-3 100 pM; read-out: IC50 value (binding inhibiting rate). The procedure: Assessment of Binding Inhibiting Activity of Test Compound Using Human-Type OT7T022-Expressing CHO Cell
(1) Preparation of Iodine-Labeled Entity of Human-Type RFRP-3 (Y-RFRP-3)
A part thereof was 1/100 diluted, radioactivity was measured with a γ-counter, and the remaining authentic product was distributed, which was stored at −30° C.
(2) Assessment of Binding Inhibiting Activity
For measuring non-specific binding, non-labeled Y-RFRP-3 was further added to […]. Then, a membrane fraction was transferred to a unifilter GF/C (Perkin Elmer) by filtering the reaction solution using a cell harvester (Perkin Elmer), and this was washed with a cooled 50 mM Tris buffer (pH 7.5) five times. The filter was dried, Microsinti (Packard) was added to the filter, and radioactivity was measured with Topcount (Packard).
A binding inhibiting rate (IC50 value) of a test compound is shown in [Table 1].

For assay [2], the target named is T1, human-type OT7T022. The assay is described as follows: Antagonist activity in cAMP production inhibiting test system using human-type OT7T022-expressing CHO cell. In kind it is cell-based. The note with it: intracellular cAMP, agonist human-type RFRP-3-8 20 nM, forskolin 2 μM. The procedure: Test of Antagonist Activity of Compound in cAMP Production Inhibiting Test System Using Human-Type OT7T022-Expressing CHO Cell
Antagonist activity of a test compound was measured in an intracellular cAMP production inhibiting test system of a CHO cell expressing human-type OT7T022. In the cAMP production inhibiting test, as an assay buffer, a Hanks' balanced salt solution (Gibco) to which 20 mM HEPES pH 7.4, 0.1% bovine serum albumin, and 0.2 mM 3-isobutyl-1-methylxanthine (Sigma) had been added, was used. A sample compound was adjusted with an assay buffer so that the final concentration became 10^−5M, 10^−6M, 10^−7M, 10^−8M, or 10^−10M. […] A human-type OT7T022-expressing CHO cell was passaged on a 96-well plate at 4×10^4/well, and cultured at 37° C., 5% CO2 and 95% air for one day. The plate which had been cultured for one day was washed with an assay buffer (150 μl) two times and, after 30 minutes, this was cultured for 30 minutes at 37° C. and 100% air. After washed with an assay buffer (150 μl) two times, 50 μl of a sample compound solution and, then, 50 μl of an agonist+forskolin solution were added, the mixture was stirred well and, after 30 minutes, this was cultured for 30 minutes at 37° C. and 100% air. An intracellular cAMP amount was measured according to a protocol of the present kit using cAMP-Screen™ system (ABI). […]

Assay [3] concerns the target T2, rat-type OT7T022 (Rattus norvegicus, UniProt Q9EP86).
T2 construct: expressed in transfected cells; host or cells: CHO cells (membrane fraction)
Put plainly: Binding inhibiting activity using rat-type OT7T022-expressing CHO cell membrane fraction. The settings on record: iodine-labeled Y-RFRP-3 100 pM. How it is done: Assessment of Binding Inhibiting Activity of Test Compound Using Rat-Type OT7T022-Expressing CHO Cell
(1) Preparation of Rat-Type OT7T022-Expressing CHO Cell Membrane Fraction
A flask in which a rat-type OT7T022-expressing CHO cell had been cultured was washed with 5 mM EDTA/PBS, cells were peeled with 5 mM EDTA/PBS, and cells were recovered by centrifugation, suspended in 25 mL of a buffer for preparing a membrane fraction (50 mM Tris-HCl, pH 7.5, 5 mM EDTA, 0.5 mM PMSF (manufactured by Wako Pure Chemical Industries, Ltd.), […] leupeptin (manufactured by Peptide Laboratory), 0.1 μg/mL pepstatin A (manufactured by Peptide Laboratory), 4 μg/mL E-64 (manufactured by Peptide Laboratory)), and homogenized on an ice using Polytron (12,000 rpm, 15 seconds×3 times). This was centrifuged in a high speed cooling centrifuge at 4° C. and 1,000 g for 10 minutes, and the supernatant was recovered. 25 mL of a buffer for preparing a membrane fraction was added to precipitates, and the supernatant was recovered by the same procedure. […] The pellet was suspended in a small amount of a buffer for preparing a membrane fraction, this was suspended using a Teflon (registered trade mark) homogenizer, a protein amount was measured using a part, and the remaining was dispensed, and stored at −80° C. […]

A short description of assay [4]: Blood glucose concentration after intravenous administration of RFRP-1 to rat. In kind it is in vivo, Wistar male rat. The settings on record: 10 nmol/kg, 5 minutes and 15 minutes after administration, compared with physiological saline group. The source says:
In FIG. 1, (-∘-) represents a blood glucose concentration of a physiological saline administration group, (-▴-) represents a blood glucose concentration of an RFRP-1 1 nmol/kg administration group, and (-▪-) represents a blood concentration of an RFRP-1 10 nmol/kg administration group.
Blood Glucose Concentration Increasing Activity of RFRP
As RFRP, human RFRP-1 (37 amino acids) consisting of an amino acid sequence of 56th (Ser) to 92nd (Phe) of an amino acid sequence represented by SEQ ID No.: 3. Hereinafter, this peptide is abbreviated as RFRP-1.
In order to study influence of peripheral administration of RFRP-1 on a blood glucose concentration, operation for collecting blood under free moving was performed. A mature Wistar male rat (weight 310 to 350 g at operation) was anesthetized with 50 mg/kg of pentobarbital by intraperitoneal administration. The rat was fixed on an anatomic pad in a supine position, and a left jugular vein was exposed. […]
Overnight after operation, 300 μl of blood was collected using a tuberculin injection syringe having a dose of 1 ml and a 25 gauge injection needle (both Telmo) before administration of RFRP-1. […] A blood glucose concentration was measured using Fuji Drichem 3500 (FUJIFILM).

Assay [5] can be described thus: Blood glucagon and insulin concentration after intravenous administration of RFRP-1 to rat. The class given is in vivo, Wistar male rat. The text has this: In FIG. 2, (-∘-) represents a blood glucagon concentration of a physiological saline administration group, (-▴-) represents a blood glucagon concentration of an RFRP-1 1 nmol/kg administration group, and (-▪-) represents a blood glucagon concentration of an RFRP-1 10 nmol/kg administration group.
In FIG. 3, (-∘-) represents a blood insulin concentration of a physiological saline administration group, (-▴-) represents a blood insulin concentration of an RFRP-1 1 nmol/kg administration group, and (-▪-) represents a blood insulin concentration of an RFRP-1 10 nmol/kg administration group. A value indicates mean±[…] (mean±SE) (n=4).
Pancreatic Glucagon Secretion Promoting Activity of RFRP
In order to study mechanism of blood glucose concentration increasing activity of RFRP-1, influence of RFRP-1 on a blood concentration of glucagon and insulin which are known as a hormone imparting a variation to a blood glucose concentration was studied. A mature Wistar male rat (weight 310 to 350 g at operation) was operated for collecting blood under free moving. Overnight after operation, 300 μl of a blood was collected using a tuberculin injection syringe having a dose of 1 ml and a 25 gauge injection needle (both Telmo) before administration of RFRP-1. […]

T1 sequence (Q9GZQ6 whole entry): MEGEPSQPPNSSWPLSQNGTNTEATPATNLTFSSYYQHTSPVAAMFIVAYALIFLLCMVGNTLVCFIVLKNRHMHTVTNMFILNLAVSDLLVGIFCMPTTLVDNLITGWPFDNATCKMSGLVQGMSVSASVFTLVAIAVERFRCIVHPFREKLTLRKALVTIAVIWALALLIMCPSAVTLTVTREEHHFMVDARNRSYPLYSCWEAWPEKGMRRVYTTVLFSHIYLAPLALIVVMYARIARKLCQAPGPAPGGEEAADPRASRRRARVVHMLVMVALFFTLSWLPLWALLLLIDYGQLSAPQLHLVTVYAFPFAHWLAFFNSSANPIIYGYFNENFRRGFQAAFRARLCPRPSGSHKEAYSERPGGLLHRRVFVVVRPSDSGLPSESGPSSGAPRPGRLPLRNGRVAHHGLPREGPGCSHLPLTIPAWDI
T2 sequence (Q9EP86 whole entry): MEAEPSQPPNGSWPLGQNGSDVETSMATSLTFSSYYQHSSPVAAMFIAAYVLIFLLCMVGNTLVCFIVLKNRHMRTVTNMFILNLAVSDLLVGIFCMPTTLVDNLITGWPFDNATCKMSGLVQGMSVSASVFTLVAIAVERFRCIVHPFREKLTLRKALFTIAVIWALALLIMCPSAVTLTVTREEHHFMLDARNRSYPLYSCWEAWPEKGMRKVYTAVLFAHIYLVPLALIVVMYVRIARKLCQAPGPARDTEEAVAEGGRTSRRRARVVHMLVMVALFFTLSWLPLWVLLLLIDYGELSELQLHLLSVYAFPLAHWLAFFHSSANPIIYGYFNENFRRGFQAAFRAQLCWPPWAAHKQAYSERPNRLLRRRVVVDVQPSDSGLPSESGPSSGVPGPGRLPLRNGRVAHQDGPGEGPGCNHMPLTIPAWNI

Turning to `CC(C)(C)Cn1c(C(=O)OC(C)(C)C)c(O)c2ccc(F)cc2c1=O` [Example 1, tert-Butyl 7-fluoro-4-hydroxy-2-neopentyl-1-oxo-1,2-dihydro-3-isoquinolinecarboxylate], the results for the half-inhibitory concentration (IC50) in assay [1], in assay [2] and in assay [3] were less than 1000 nM, less than 5000 nM and less than 1000 nM, respectively.

For the compound `CC(C)(C)Cn1c(C(=O)OC(C)(C)C)c(O)c2cc(Cl)c(Cl)cc2c1=O` [Example 3, tert-Butyl 6,7-dichloro-4-hydroxy-2-neopentyl-1-oxo-1,2-dihydro-3-isoquinolinecarboxylate], the figures for the IC50 in assay [1], in assay [2] and in assay [3] were less than 1000 nM, less than 5000 nM and less than 1000 nM, respectively.

Take `CCCCOc1c(C(=O)OC(C)(C)C)n(CC(C)(C)C)c(=O)c2ccc(F)cc12` [Reference Example 12, tert-Butyl 4-butoxy-6-fluoro-2-neopentyl-1-oxo-1,2-dihydro-3-isoquinolinecarboxylate]: in assay [1], the IC50 (commonly the concentration that inhibits the measured activity by half) is less than 1000 nM.

“RFRP-1: human RFRP-1 (37 amino acids) consisting of 56th (Ser) to 92nd (Phe) of the amino acid sequence of SEQ ID No.: 3 (SLNFEELKDWGPKNVIKMSTPAVNKMPHSFANLPLRF; Human)”: in assay [4], the blood glucose concentration entry was “significant (p<0.05, n=4) activity of increasing a blood glucose concentration”. In assay [5], the blood insulin concentration entry is given as “not recognized”.
